For one compound, inhibition results are on record in PMC9500300, “Development of a novel Bruton’s tyrosine kinase inhibitor that exerts anti-cancer activities potentiates response of chemotherapeutic agents in multiple myeloma stem cell-like cells” (Frontiers in Pharmacology, 2022).

Structures can show the parent of a compound that is named as a salt.

In the assay the target is Bruton's tyrosine kinase (BTK) (Homo sapiens, UniProt Q06187). Nature of the assay: ADP-Glo in vitro kinase assay with BTK enzyme (Promega). It is filed as biochemical.
Bruton's tyrosine kinase (BTK), sequence (Q06187 2-659): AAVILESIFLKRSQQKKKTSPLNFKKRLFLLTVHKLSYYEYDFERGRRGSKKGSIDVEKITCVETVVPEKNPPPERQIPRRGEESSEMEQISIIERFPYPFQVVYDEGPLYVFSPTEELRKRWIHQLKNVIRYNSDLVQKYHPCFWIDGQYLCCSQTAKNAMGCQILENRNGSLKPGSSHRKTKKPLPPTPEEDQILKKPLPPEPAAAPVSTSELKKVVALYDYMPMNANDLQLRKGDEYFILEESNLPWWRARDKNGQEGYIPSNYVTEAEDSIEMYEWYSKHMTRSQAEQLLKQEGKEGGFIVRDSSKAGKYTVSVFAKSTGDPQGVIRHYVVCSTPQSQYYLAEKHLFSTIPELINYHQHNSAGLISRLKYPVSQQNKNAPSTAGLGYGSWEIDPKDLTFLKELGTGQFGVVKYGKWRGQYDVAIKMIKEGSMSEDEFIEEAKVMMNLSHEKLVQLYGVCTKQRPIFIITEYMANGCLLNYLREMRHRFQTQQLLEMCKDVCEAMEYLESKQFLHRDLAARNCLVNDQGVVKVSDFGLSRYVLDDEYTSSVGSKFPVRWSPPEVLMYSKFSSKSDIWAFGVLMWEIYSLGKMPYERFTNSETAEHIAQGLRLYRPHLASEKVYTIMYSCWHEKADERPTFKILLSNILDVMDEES

Broadly, the inhibition is the drop in the measured response relative to a control, in per cent. Low readings indicate a weak effect, high ones a strong effect. For the compound `N=C(N)SCc1ccc(CN2C(=O)C(=Cc3ccc(Oc4cccc(Cl)c4Cl)cc3)c3cc([N+](=O)[O-])ccc32)cc1` [compound 6, 4-((3-(4-(2,3-dichlorophenoxy)benzylidene)-5-nitro-2-oxoindolin-1-yl)methyl) benzyl carbamimidothioate hydrobromide], the inhibition at 1 µM was 49.8%.
